Reference: the supplement of paper PMC10949913

Legend:
Assay in all cases: area under concentration-response curve (viability) (AUC (a.u.)); higher = less active
Details in all cases: 48 h
CU-ACC1 = system: CU-ACC1
Outline: (§1)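 Cells from three adrenocortical carcinoma lines were seeded at 500–1,000 cells/well in 5 µL medium in 1,536-well plates. Each library compound was added as 23 nL at 11 concentrations, and after 48 h CellTiter-Glo was added for 15 minutes at room temperature before reading luminescence. Plate-wise normalisation to vehicle and empty-well controls preceded curve fitting. AC50 and area under the curve were calculated only for inhibitory or non-responding curve classes.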

CU-ACC2 = system: CU-ACC2
Outline: as §1

NCI-H295R = system: NCI-H295R
Outline: as §1

Compound	area under concentration-response curve (CU-ACC1)	area under concentration-response curve (CU-ACC2)	area under concentration-response curve (NCI-H295R)
CCOCC(O)COc1ccc(NC(=O)CC[S+](C)C)cc1 (stereo not given)	367	394	411
O=C(O)C[C@H]1CC[C@H](c2ccc(-c3ccc(Nc4ccc(C(F)(F)F)nc4)cn3)cc2)CC1	504	580	538
Oc1ccc(C2CNCCc3c2cc(O)c(O)c3Cl)cc1 (stereo not given)	468	538	524
COc1cc[nH]c2ncc(C(=O)C(=O)N3CCN(C(=O)c4ccccc4)C[C@H]3C)c1-2	545	632	560
C=CC(=O)N1CCC(CNc2ncnc(N)c2-c2ccc(Oc3ccccc3)cc2)CC1	550	615	566
N#C/C(=C(/N)Sc1ccc(N)cc1)c1ccccc1C(F)(F)F	533	574	585
O=c1sn(-c2cccc3ccccc23)c(=O)n1Cc1ccccc1	462	501	433
CCCCCN(C)CCC(O)(P(=O)([O-])O)P(=O)(O)O	612	590	611
C[C@H]1COC2=C3N1\C=C(C(O)=O)/C(=O)C3=CC(=C2N4CCN(C)CC4)F	522	650	595
Cc1cn[nH]c1	492	575	524
CN1CCN(CC1)C2=C(NC(=O)C/3=C/NC(=O)/C=C3C(F)(F)F)C=C(C=C2)C4=CC(=CC=C4)CN5CCOCC5	508	610	514
CCC/1=C/C2=C(C(=O)N1CC(=O)C3=CC=CC=C3)C(=C([N]2C)C(=O)NC4CCN(CC4)C(=O)CO)OCC(F)(F)F	572	642	594
CO[C@H]1CC[C@H](N(c2cc(C3=CCCCC3)sc2C(=O)[O-])C(=O)[C@H]2CC[C@H](C)CC2)CC1	514	613	573
C[N]1C=C(C=N1)C2=C3\C=N/NC(=O)C4=C3C(=CC(=C4)NC(=O)[C@H](N)C5CCCCC5)[NH]2	530	594	555
O=C1\C=C/C[C@@H]2[C@H]3CCCN4CCC[C@@H](CN12)[C@@H]34	541	509	546
Nc1ncnc2c1c(COc1cccc(Cl)c1)nn2C1CCOCC1	461	578	525
C[C@@H](N)[C@H]1CC[C@H](C(=O)Nc2ccncc2)CC1	472	487	448
CC(C)=CCC[C@](C)(O[C@@H]1O[C@H](CO[C@@H]2O[C@H](CO)[C@@H](O)[C@H](O)[C@H]2O)[C@@H](O)[C@H](O)[C@H]1O)[C@H]1CC[C@]2(C)[C@@H]1[C@H](O)C[C@@H]1[C@@]3(C)CC[C@H](O[C@@H]4O[C@H](CO)[C@@H](O)[C@H](O)[C@H]4O[C@@H]4O[C@H](CO)[C@@H](O)[C@H](O)[C@H]4O)C(C)(C)[C@@H]3CC[C@]12C	533	637	591
O[C@@H]1C\C(=C/C(O)C1O)C(O)=O (stereo not given in full)	512	614	581
Cc1oncc1C(=O)Nc1ccc(C(F)(F)F)cc1	421	498	481
C[C@H](Nc1ncnc2[nH]cnc12)c1cc2ccc(F)cc2nc1-c1ccccn1	466	571	512
OC[C@H]1O[C@H]([C@H](O)[C@@H]1O)N2\C=C/C(=O)NC2=O	485	535	502
CCCN(CCC)C(=O)C(CCC(=O)O)NC(=O)c1ccccc1 (stereo not given)	504	570	524

Compound	area under concentration-response curve (CU-ACC1)	area under concentration-response curve (CU-ACC2)	area under concentration-response curve (NCI-H295R)
CCCC[C@@H](C=O)NC(=O)[C@H](CC(C)C)NC(=O)OCc1ccccc1	463	552	517
CN(C)[S+](=O)([O-])c1ccc2c(c1)C(=Cc1cc3c([nH]1)CCCC3)C(=O)N2	594	655	576
CC(C)C[C@H](NC(=O)[C@H](Cc1ccccc1)NC(=O)OCc1ccccc1)C(=O)C=O	456	531	504
CCOC(=O)c1c(/C(C#N)=C\N)c2ccc(Cl)c(Cl)c2n1C	510	478	517
N[C@@H](Cc1ccc(O)c(O)c1)C(=O)O	503	612	534
CCC1(C)CC(=O)NC1=O (stereo not given)	497	603	551
Cc1onc(-c2ccc(F)cc2)c1COc1ccc(C(=O)N2CC[S+](=O)([O-])CC2)cn1	596	646	616
Clc1cc2c(NC3CCCC3)nnc(-c3ccncc3)c2cc1Cl	581	609	518
CC(=O)N[C@H]1[C@H](O[C@@H]2c3ccc(c(Cl)c3)Oc3cc4cc(c3O[C@@H]3O[C@H](CO)[C@@H](O)[C@H](O)[C@H]3NC(=O)CCCCCCCC(C)C)Oc3ccc(cc3Cl)C[C@H]3NC(=O)[C@H](N)c5ccc(O)c(c5)Oc5cc(O)cc(c5)[C@H](NC3=O)C(=O)N[C@H]4C(=O)N[C@H]3C(=O)N[C@@H]2C(=O)N[C@@H](C(=O)O)c2cc(O)cc(O[C@H]4O[C@H](CO)[C@@H](O)[C@H](O)[C@@H]4O)c2-c2cc3ccc2O)O[C@H](CO)[C@@H](O)[C@@H]1O	492	593	551
C[C@H](NC(=O)Cc1cc(F)cc(F)c1)C(=O)N[C@H](C(=O)OC(C)(C)C)c1ccccc1	570	677	572
CC(C)(NC(=O)O[C@@H]1CN2CCC1CC2)c1csc(-c2ccc(F)cc2)n1	479	477	480
C=C[C@H]1CN2CC[C@H]1C[C@H]2[C@H](O)c1ccnc2ccc(OC)cc12	501	602	521
Cn1nccc1Nc1nccc(-c2cc3c(s2)C(C)(C)N(CCN2CCOCC2)C3=O)n1	528	589	544
O=C1CC[C@H](N2Cc3c(OCc4ccc(CN5CCOCC5)cc4)cccc3C2=O)C(=O)N1	517	606	552
CCCCCCCCCCCCc1ccc([S+](=O)([O-])Nc2nncs2)cc1	543	604	527
C[C@@H]1COCCN1C\2=C\C(=O)N\3CC[C@H](N(CC4=CN=CC(=C4)Cl)C3=N2)C(F)(F)F	550	661	590
CCOC(=O)C/1=C(C)/NC(=S)NC1C2=CC=CC(=C2)O (stereo not given)	498	545	526
Cc1cc(SCc2sc(-c3ccc(C(F)(F)F)cc3)nc2C)ccc1OCC(=O)O	517	608	540
Cn1c(=O)c2c(ncn2CC(O)CO)n(C)c1=O (stereo not given)	437	531	483
COc1cc([C@@H](CC(=O)O)c2ccc(C)c(CN3C[C@@H](C)Oc4ccccc4[S+]3(=O)[O-])c2)cc2nnn(C)c12	341	295	348
O=C(O)CCn1c2c(c3ccccc31)C[C@H](N[S+](=O)([O-])c1ccc(F)cc1)CC2	445	540	496
Cc1c(Cl)cccc1[S+](=O)([O-])Nc1nc(CCN2CCOCC2=O)cs1	483	583	520
